Reference: the RepoRT retention time repository
Counter-ions that a name gives are not always drawn.

Test: HILIC, Merck SeQuant ZIC-HILIC, 25 °C, 0.25 mL/min; A: water + 16 mM ammonium formate; B: acetonitrile + 0.1% formic acid, pH 3; gradient (min/%B) 0/97 2/97 10/70 15/10 17/10 18/97 25/97
Settings: stereoisomer not certain

| Structure (SMILES) | LC retention time [min] |
| --- | --- |
| CC(C)(N)C(=O)O [2-AMINOISOBUTYRATE] | 13 |
| NC(=O)c1ncn(C2OC(COP(=O)(O)O)C(O)C2O)c1N (stereo unspecified) [AICAR] | 14.2 |
| Nc1ncnc2c1ncn2C1OC(COP(=O)(O)OP(=O)(O)OC2OC(CO)C(O)C(O)C2O)C(O)C1O (stereo unspecified) [ADP-GLUCOSE] | 14.7 |
| Cc1ccccc1C(=O)NCC(=O)O [2-Methylhippuric acid (ortho-Methylhippuric acid)] | 1.97 |
| O=C(O)Cc1cnc[nH]1 [4-IMIDAZOLEACETATE] | 13.6 |
| NCC(N)C(=O)O (stereo unspecified) [2-3-DIAMINOPROPIONATE] | 16.1 |
| NCCc1cnc[nH]1 [HISTAMINE] | 17 |
| O=C(O)c1cccc(O)c1O [2-3-DIHYDROXYBENZOATE] | 2.14 |
| Cn1c(=O)[nH]c2[nH]c(=O)[nH]c2c1=O [1-Methyluric acid] | 9.44 |
| CCCCCCCCCCCCCCCC(=O)OCC(O)COP(=O)(O)OCCN (stereo unspecified) [16-0_LysoPE] | 10.2 |
| Nc1ncnc2c1ncn2C1OC(COP(=O)(O)OP(=O)(O)OCC2OC(O)C(O)C2O)C(O)C1O (stereo unspecified) [ADENOSINE DIPHOSPHATE RIBOSE] | 14.6 |
| NCC(O)c1ccccc1 (stereo unspecified) [PHENYLETHANOLAMINE] | 10.9 |
| Nc1nc2c(ncn2C2OC(COP(=O)(O)OP(=O)(O)OC3OC(CO)C(O)C(O)C3O)C(O)C2O)c(=O)[nH]1 (stereo unspecified) [GUANOSINE DIPHOSPHATE MANNOSE] | 15.2 |
| Nc1ccn(C2OC(COP(=O)(O)OP(=O)(O)OP(=O)(O)O)C(O)C2O)c(=O)n1 (stereo unspecified) [CYTIDINE TRIPHOSPHATE] | 15.9 |
| O=C(O)C(=O)Cc1c[nH]c2ccccc12 [INDOLE-3-PYRUVATE] | 1.88 |
| CC(O)(CC(=O)O)C(=O)O (stereo unspecified) [CITRAMALATE] | 6.53 |
| C[C@H](O)CC(=O)O [(S)-3-Hydroxybutyric acid] | 2.16 |
| O=C(O)Cc1c[nH]c2ccccc12 [INDOLE-3-ACETATE] | 2.06 |
| O=C(O)c1ccc(=O)[nH]c1 [6-HYDROXYNICOTINATE] | 6.01 |
| Nc1ccccc1O [2-AMINOPHENOL] | 2.11 |
| CC(CCC(=O)O)C1CCC2C3CCC4CC(=O)CCC4(C)C3CCC12C (stereo unspecified) [5b-cholanic acid-3-ONE] | 1.63 |
| O=C(CO)COP(=O)(O)O [DIHYDROXYACETONE PHOSPHATE] | 14 |
| Nc1nc2c(c(=O)[nH]1)N=C(CNc1ccc(C(=O)NC(CCC(=O)O)C(=O)O)cc1)CN2 (stereo unspecified) [DIHYDROFOLATE] | 12.4 |

More lines, now with the values ahead:

| LC retention time [min] | Structure (SMILES) |
| --- | --- |
| 10.4 | Cc1ncc(CO)c(CO)c1O [PYRIDOXINE] |
| 1.54 | c1ccc(CNc2ccccc2)cc1 [N-benzylaniline] |
| 19.9 | CC(=O)NCCCNCCCCNCCCN [N1-ACETYLSPERMINE] |
| 5.34 | O=CNCC(=O)O [N-FORMYLGLYCINE] |
| 6.35 | O=C(O)CC(=O)O [MALONATE] |
| 2.08 | COc1cc(C(=O)O)ccc1O [Vanillic acid] |
| 14.4 | Nc1nc2c(ncn2C2CC(O)C(COP(=O)(O)O)O2)c(=O)[nH]1 (stereo unspecified) [dGMP sodium salt hydrate] |
| 2.13 | CC(C)=CCNc1ncnc2nc[nH]c12 [N6-(DELTA2-ISOPENTENYL)-ADENINE] |
| 8.82 | O=C(C=Cc1ccc(O)c(O)c1)OC(Cc1ccc(O)c(O)c1)C(=O)O (stereo unspecified) [ROSMARINATE] |
| 15.9 | C[S+](CCC(N)C(=O)[O-])CC1OC(n2cnc3c(N)ncnc32)C(O)C1O (stereo unspecified) [S-ADENOSYLMETHIONINE] |
| 17.5 | O=C(O)C(=O)O [OXALATE] |
| 16.5 | C[N+](C)(C)CCCCC(N)C(=O)[O-] (stereo unspecified) [N-N-N-TRIMETHYLLYSINE] |
| 15.1 | OCC1OC(OCC2OC(OCC3OC(OC4(CO)OC(CO)C(O)C4O)C(O)C(O)C3O)C(O)C(O)C2O)C(O)C(O)C1O (stereo unspecified) [STACHYOSE] |
